The source of these data is patent publication US9102642B2, “Herbicidally active cyclic diones and derivatives thereof, processes for their preparation, compositions, and methods of controlling weeds” (Syngenta Limited, priority 2009, dated 2015).

The term pest or weed control denotes how far the test organism was held down. Low readings indicate weak suppression, high ones strong suppression.

What all share (experiment): Pre-emergence herbicidal activity, glasshouse pot test
Type in all cases: in vivo
Holding throughout (conditions): 312 h, Rate 250 g/ha, evaluated after 13 days, 100=total damage to plant, 0=no damage to plant

Assay [1] relates to Alopecurus myosuroides (ALOMY). The procedure: (§1) Seeds of a variety of test species were sown in standard soil in pots. After cultivation for one day (pre-emergence) or after 8 days cultivation (post-emergence) under controlled conditions in a glasshouse (at 24/16° C., day/night; 14 hours light; 65% humidity), the plants were sprayed with an aqueous spray solution derived from the formulation of the technical active ingredient in acetone/water (50:50) solution containing 0.5% Tween 20 (polyoxyethelyene sorbitan monolaurate, CAS RN 9005-64-5). The test plants were then grown in a glasshouse under controlled conditions in a glasshouse (at 24/16° C., day/night; 14 hours light; 65% humidity) and watered twice daily. After 13 days for pre and post-emergence, the test was evaluated (100=total damage to plant; 0=no damage to plant). Test Plants: Lolium perenne (LOLPE), Alopecurus myosuroides (ALOMY), Echinochloa crus-galli (ECHCG), and Avena fatua (AVEFA). Pre-Emergence Activity

Assay [2] has as its system Echinochloa crus-galli (ECHCG). How it is done: as §1
The test system of the next assay is Avena fatua (AVEFA). The procedure:
as §1

Another assay has as its system Lolium perenne (LOLPE). The procedure: as §1

In the case of `CCc1cc(Oc2ccc(Cl)cc2Cl)ccc1C1=C(O)C(C)(C)OC(C)(C)C1=O` [Compound A-2], the pest or weed control at 250 g/ha in assay [1] was 20%; in assay [2] it was 50%; with Avena fatua (AVEFA) it was 0%; in the assay with Lolium perenne (LOLPE), 70%.

With `CCc1cc(Oc2ccc(Cl)cc2F)ccc1C1=C(O)C(C)(C)OC(C)(C)C1=O` [Compound A-3], the pest or weed control at 250 g/ha in assay [1] came to 20%; in assay [2] it was 20%; in the assay with Avena fatua (AVEFA) it was 10%; in the assay on Lolium perenne (LOLPE) it was 20%.

As for `Cc1cc(Oc2ncccc2Cl)cc(C)c1C1=C(O)CCCC1=O` [Compound A-16], the pest or weed control at 250 g/ha (in assay [1]; in assay [2]; in the assay on Avena fatua (AVEFA); in the assay with Lolium perenne (LOLPE)) was 0% throughout.

For the compound `CCc1cc(Oc2ncc(C(F)(F)F)cc2Cl)ccc1C1=C(O)C(C)(C)OC(C)(C)C1=O` [Compound A-11], the pest or weed control at 250 g/ha in assay [1] came out at 90%; in assay [2], 100%; in the assay on Avena fatua (AVEFA), 90%; in the assay on Lolium perenne (LOLPE), 100%.

In the case of `Cc1cc(Oc2cnc3cc(Cl)ccc3n2)cc(C)c1C1=C(O)C(C)(C)OC(C)(C)C1=O` [Compound A-14], the pest or weed control at 250 g/ha was found to be 30% in assay [1], 20% in assay [2], 10% with Avena fatua (AVEFA) and 50% with Lolium perenne (LOLPE).

For `CCc1cc(Oc2ccc(Cl)c(F)c2)ccc1C1=C(O)C(C)(C)OC(C)(C)C1=O` [Compound A-7, 4-[4-(4-chloro-3-fluorophenoxy)-2-ethylphenyl]-2,2,6,6-tetramethylpyran-3,5-dione], the pest or weed control at 250 g/ha in assay [1] worked out at 40%; in assay [2] it was 60%; with Avena fatua (AVEFA), 20%; in the assay on Lolium perenne (LOLPE), 80%.

For `CCc1cc(Oc2ccc(Br)cc2)ccc1C1=C(O)C(C)(C)OC(C)(C)C1=O` [Compound A-5], the pest or weed control at 250 g/ha in assay [1] turned out to be 10%; in assay [2], 40%; in the assay with Avena fatua (AVEFA), 10%; with Lolium perenne (LOLPE), 30%.

As to `CCc1cc(Oc2cnc3cc(Cl)ccc3n2)ccc1C1=C(O)C(C)(C)OC(C)(C)C1=O` [Compound A-10, 4-[4-(6-chloroquinoxalin-2-yloxy)-2-ethylphenyl]-2,2,6,6-tetramethylpyran-3,5-dione], the pest or weed control at 250 g/ha is 70% in assay [1], 100% in assay [2], 90% in the assay with Avena fatua (AVEFA) and 100% in the assay with Lolium perenne (LOLPE).

Consider `CCc1cc(Oc2ccc(F)cc2)ccc1C1=C(O)C(C)(C)OC(C)(C)C1=O` [Compound A-6], for which the pest or weed control at 250 g/ha in assay [1] amounted to 60%; in assay [2], 100%; in the assay on Avena fatua (AVEFA), 30%; with Lolium perenne (LOLPE), 100%.

Regarding `CCc1cc(Oc2ccc(C(F)(F)F)cn2)ccc1C1=C(O)C(C)(C)OC(C)(C)C1=O` [Compound A-9, 4-[4-(5-trifluoromethylpyridin-2-yloxy)-2-ethylphenyl]-2,2,6,6-tetramethylpyran-3,5-dione], the pest or weed control at 250 g/ha in assay [1] was found to be 20%; in assay [2], 30%; in the assay on Avena fatua (AVEFA) it was 0%; with Lolium perenne (LOLPE), 60%.

On to `CCc1cc(Oc2ccc(Cl)cc2)ccc1C1=C(O)C(C)(C)OC(C)(C)C1=O` [Compound A-4], for which the pest or weed control at 250 g/ha amounted to 20% in assay [1], 60% in assay [2], 20% with Avena fatua (AVEFA) and 60% with Lolium perenne (LOLPE).

With `CCc1cc(Oc2ncc(Cl)cc2F)ccc1C1=C(O)C(C)(C)OC(C)(C)C1=O` [Compound A-8], the pest or weed control at 250 g/ha in assay [1] stood at 40%; in assay [2] it was 100%; with Avena fatua (AVEFA), 30%; in the assay on Lolium perenne (LOLPE), 100%.
